Assay results reported in US8535897B2, “Assays for non-apoptotic cell death and uses thereof” (The Trustees of Columbia University in the City of New York, priority 2006, dated 2013).
Where a name gives a salt, the structure may show the parent alone.

Assays:
[1] = test system: BJ-TERT/LT/ST/RAS^V12 cells; test: Cell death, viable cells counted using a hemacytometer; format: cell-based, human; conditions: 13 μM erastin Al, 23 μM antimycin, 126 μM 2-ME or the combinations
[2] = test system: BJ-TERT/LT/ST/RAS^V12 cells; test: Suppression of erastin lethality by MEK inhibitors (Trypan Blue); format: cell-based, human; conditions: U0126 20 μM, MEK inhibitor I 10 μM, MEK 1/2 inhibitor 50 μM, 48 h
Description: BJ-TERT/LT/ST/RASV12 engineered tumor cells were treated with the indicated concentrations of erastin and each MEK1/2 inhibitor for 24 hours and viability was determined by Trypan Blue exclusion.
Cells grown in 175 cm^2 flasks were reseeded in 6-well format (1.4×10^5 cells/well) and treated with erastin dilutions (5-fold, from 36 uM to 60 nM, with no-drug control, n=2) in the presence of one of the MEK inhibitors U0126 (20 uM), MEK inhibitor I (10 uM), MEK 1/2 inhibitor (50 uM), PD98059 (50 uM), MEK inhibitor II (30 uM), or in the absence of inhibitor. After 48 hours, cells were trypsinized and counted using a Vi-CELL™ Series Cell Viability Analyzer. […] Non-linear regression was used to fit curves to the data points using GraphPad Prism™ software. The bottom of each curve was set to zero.

[3] = test system: BJ-TERT/LT/ST/RAS^V12 cells; test: Suppression of erastin lethality by iron chelators (Alamar Blue); format: cell-based, human; conditions: 100 μM DFOM, 100 μM 1a, 100 μM 2, 10 μM or 1 μM 311, 24 h
Description: BJ-TERT/LT/ST/RAS^V12 cells were treated with erastin and four different iron chelators, desferrioxamine mesylate (DFOM), the compounds 1a and 2 whose structures are shown in FIG. 30, and the compound “311” (311-10 or 311-1) (Green, D. A, et al., Inhibition of Malignant Cell Growth by 311, a novel iron chelator of the pyridoxal isonicotinoyl hydrazone class: Effect on the R2 subunit of ribonucleotide reductase. Clinical Cancer Research, (7): 3574-3579 (2001). Cell killing was measured by Alamar Blue assay.
(a) BJ-TERT/LT/ST/RAS^V12 cells were treated with 9 μM erastin A1 for the indicated length of time, and the number of viable cells determined. (b) 1,000 BJ-TERT/LT/ST/RAS^V12 cells/well in 384-well plates were treated with erastin for 2 d, then alamar blue was added to a final concentration of 10% and the plates were incubated for 16 h. Red fluorescence resulting from reduction of alamar blue was detected on a Victor3 platereader. […] (e) The number of viable cells was quantified under each condition using a hemacytometer. […] BJ-TERT/LT/ST/RAS^V12 (shown in histogram plots, and in line graph as dark diamonds) or BJ-TERT cells (shown in line graph only, light circles) were treated with 4.6-μM erastin A1 and the level of intracellular oxidative species determined. […] ATP levels were measured, viable cells determined by Trypan Blue exclusion and ATP per viable cell determined. […]

VDAC1, VDAC2 and VDAC3 = test: VDAC chemi-proteomic identification (pull-down on immobilized erastin analogs); format: binding, human; conditions: BJ-TERT/LT/ST/RAS^V12 cell lysates
Description: Erastin A6, Erastin A3, and erastin B2 were immobilized on solid-phase resins, and proteins that interact with A3 or A6, but not B2 were identified. […] In certain embodiments, wherein BJ-TERT cell lysates were used, a small amount of VDAC1 on the A3 and A6 resins was identified, but none of the VDACs were bound on the B2 resin. Thus, it appears that erastin A3 and A6 more efficiently isolate VDAC2 and VDAC3 compared to erastin B2.
Cultures of BJ-TERT and BJ-TERT/LT/ST/RAS^V12 cells (ten 150 mm plates) were washed with PBS, lysed in 25 mM hydroxyethylpiperazine-N′-2-ethanesulfonic acid (HEPES) pH 7.5, 150 mM NaCl, 1% NP-40, 10 mM MgCl2, 1 mM ethylene-diamine tetra acetate (EDTA), 10% glycerol, 1 mM dithiothreitol (DTT) and protease inhibitor cocktail. Protein concentration was determined using a Bradford colorimetric assay.
Erastin A3 and B2 were dissolved in DMSO at 10 mg/ml. 100 μL of AffiGel-10 was washed and resuspended in 400 μl DMSO. 10 μL of compound and 3 μL of 1:100 dilution of triethylamine in DMSO were added. […] Samples were analyzed using both a 4700 Proteomics Analyzer MALDI-TOF/TOF (TOF/TOF; Applied Biosystems) and a Q Trap (AB/MDS Sciez) and the peptide level data were combined. […]

BJ-TERT/LT/ST/RASV12 = test: Alamar blue viability assay, engineered tumor cells; format: cell-based, human; conditions: for selective lethality / activity in cells: BJ-TERT/LT/ST/RAS^V12 cells vs BJ-TERT cells
Description: Erastin was tested in a dilution series in five engineered cell lines derived from primary BJ fibroblasts. Cells were incubated with erastin for two days at 37° C. with 5% CO2, Alamar blue was added (10% final volume) and fluorescence measured (530 nm ex, 590 nm em). Cell lines harboring oncogenic RAS (triangles, circles and x's) were sensitive to erastin, but isogenic lines lacking oncogenic RAS (squares and diamonds) were resistant. Two different clones of engineered tumor cells (circles and triangles) responded similarly.
(a) BJ-TERT/LT/ST/RAS^V12 cells were treated with 9 μM erastin A1 for the indicated length of time, and the number of viable cells determined. (b) 1,000 BJ-TERT/LT/ST/RAS^V12 cells/well in 384-well plates were treated with erastin for 2 d, then alamar blue was added to a final concentration of 10% and the plates were incubated for 16 h. Red fluorescence resulting from reduction of alamar blue was detected on a Victor3 platereader. The percent growth inhibition is shown; error bars represent one SD. […] (c) TEM images (20,000× magnification) of BJ-TERT/LT/ST/RAS^V12 mitochondria after cells were treated with nothing, erastin (37 μM for 10 h) or staurosporine (STS, 1 μM for 5 h), and phase-contrast photograph of BJ-TERT/LT/ST/RAS^V12 cells 24 h after 9 μM erastin A1 treatment is also shown to indicate that even after cell death, nuclei are intact. (d) Anti-oxidants suppress erastin-induced death. BJ-TERT/LT/ST/RAS^V12 cells were treated as indicated and photographed. (e) The number of viable cells was quantified under each condition using a hemacytometer. (f) Iron chelators suppress erastin-induced cell death. Cells were seeded in 384-well plates (6,000 cells/well) and treated with 2-fold dilution series of erastin in the presence of 100 μM desferrioxamine mesylate (DFOM), 100 μM of iron chelator 1a, 100 μM of iron chelator 2, 10 μM or 1 μM of iron chelator 311. After 24 h, alamar blue was added and cell viability assayed. (g, h) Erastin-induced formation of oxidative species. BJ-TERT/LT/ST/RAS^V12 (shown in histogram plots, and in line graph as dark diamonds) or BJ-TERT cells (shown in line graph only, light circles) were treated with 4.6-μM erastin A1 and the level of intracellular oxidative species determined. (i, j) STS, but not erastin, induces PARP1 cleavage (red bands at top) in BJ-TERT/LT/ST/RAS^V12 cells and in A673, HT1080 and HeLa cells. NS: non-specific band. […] Cells were treated with STS or erastin, separated into mitochondrial and cytosolic fractions, and probed for cytochrome c (lower red band) and total VDAC (middle green band, pan-VDAC antibody). (1) Caspase-3 is not cleaved in response to erastin. Cells were treated as indicated and probed with an anti-caspase-3 antibody that recognizes both the full length and the cleaved, active form (lower band). […] ATP levels were measured, viable cells determined by Trypan Blue exclusion and ATP per viable cell determined. Abbreviations: DMSO, dimethylsulfoxide; BHT, butylated hydroxytoluene; TOC, alpha-tocopherol; ERA, erastin A1; CAR, beta-carotene; STS, staurosprine.
(a) Calu-1 lung carcinoma cells harboring oncogenic KRAS were infected with lentivirus containing shRNAs targeting KRAS or GFP. Sequences of shRNAs are indicated by starting nucleotide (nt) in the KRAS mRNA coding sequence. Cells were treated with erastin and viability measured by Trypan Blue exclusion. (b) Knockdown of KRAS was confirmed by western blot. (c,d) A673 cells harboring oncogenic BRAF were infected with lentiviral shRNAs targeting BRAF exon 5 (c) or the 5′ UTR (d), luciferase (LUC)(c) or GFP (d). Cells were treated with erastin and viability measured using Alamar Blue (c) and Trypan Blue (d). (e) Knockdown of BRAF was confirmed by western blot. […] BJ-TERT/LT/ST/RAS^V12 cells were treated with erastin alone or in with a MEK inhibitor U0126 (20 μM), MEK inhibitor I (10 μM) or MEK 1/2 inhibitor (50 μM). After 48 h, viability was determined using Trypan Blue. […]

BJELR cells = test: Sensitivity after upregulation of VDACs by nucleofection; format: cell-based, human
Description: Quantitative western blot showing the ratio of VDACs (top band, green) to eif4E (bottom band, red) (e). […] Green, untransfected BJELR cells; blue, mock nucleofected BJELR cells; red, VDAC2/3-nucleofected BJELR cells (f).
In certain aspects, the invention provides that erastin acts by a gain-of-function mechanism and that cells with more VDAC proteins are more sensitive to erastin. A gain-of-function mechanism operates in cells which have increased levels of topoisomerase I and are thus more sensitive to camptothecin^149. […] In other embodiments, cell lines can be stably transfected with vectors expressing VDAC1, 2, and/or 3. Thus, increased VDAC expression leads to erastin sensitivity which is consistent with a gain of function mechanism. Furthermore, a knockdown of VDACs causes erastin resistance.

COc1cc2c(cc1O)CC[C@@H]1[C@@H]2CC[C@]2(C)[C@@H](O)CC[C@@H]12 [2-ME, 2-methoxyestradiol]
Cell death (%) [1]: 66%

N#CC(=C(N)Sc1ccc(N)cc1)c1ccccc1C(F)(F)F [MEK 1/2 inhibitor]
effect of MEK inhibitor on erastin lethality [2]: prevent erastin lethality

N#C/C(=C(/N)Sc1ccccc1N)c1cccc(C(O)c2ccncc2)c1 (stereo not drawn) [MEK inhibitor I]
effect of MEK inhibitor on erastin lethality [2]: prevent erastin lethality

N#CC(=C(/N)Sc1ccccc1N)/C(C#N)=C(\N)Sc1ccccc1N [U0126]
effect of MEK inhibitor on erastin lethality [2]: prevent erastin lethality

O=C(N/N=C/c1c(O)ccc2ccccc12)c1ccncc1 [compound 311]
effect of iron chelator on erastin lethality [3]: suppress erastin lethality

CC(=O)N(O)CCCCCNC(=O)CCC(=O)N(O)CCCCCNC(=O)CCC(=O)N(O)CCCCCN [desferrioxamine mesylate]
effect of iron chelator on erastin lethality [3]: suppress erastin lethality

CCOc1ccccc1-n1c(C(C)N2CCN(C(=O)COc3ccc(CN)cc3)CC2)nc2ccccc2c1=O (stereo not drawn) [erastin A3]
VDAC isoforms identified on the immobilized analog resin (VDAC1, VDAC2 and VDAC3): all three isoforms of the human mitochondrial voltage-dependent anion channels (VDAC1, VDAC2 and VDAC3) were identified | selective lethality / activity in cells (BJ-TERT/LT/ST/RASV12): retained the ability to kill BJ-TERT/LT/ST/RAS^V12 cells but not BJ-TERT cells

CCOc1ccccc1-n1c(C(C)N2CCN(C(=O)COc3ccc(CN)cc3)CC2)nc2ccccc2c1=O (stereo not drawn) [erastin A6]
VDAC isoforms identified on the immobilized analog resin (VDAC1, VDAC2 and VDAC3): all three isoforms of the human mitochondrial voltage-dependent anion channels (VDAC1, VDAC2 and VDAC3) were identified | selective lethality / activity in cells (BJ-TERT/LT/ST/RASV12; listed as ERA-A6): selectively lethal to RASV12-expressing cells

CCOc1ccccc1-n1c(C(C)N2CCN(C(C)=O)CC2)nc2ccccc2c1=O (stereo not drawn) [erastin A8]
selective lethality / activity in cells (BJ-TERT/LT/ST/RASV12): inactive

CCOc1ccccc1-n1c(C(C)N2CCN(C(=O)COc3ccc(Cl)cc3)CC2)nc2cc(NC(C)=O)ccc2c1=O (stereo not drawn) [erastin A9]
IC50 (BJ-TERT/LT/ST/RASV12; BJELR (BJ-TERT/LT/ST/RAS^V12) cells): 1900 nM

CC(C)NC(=O)N(CCN1CCN(C(=O)COc2ccc(Cl)cc2)CC1)Cc1ccc(F)cc1 [erastin B1]
selective lethality / activity in cells (BJ-TERT/LT/ST/RASV12): inactive

CC(C)NC(=O)N(CCN1CCN(C(=O)COc2ccc(Cl)cc2)CC1)Cc1ccc(CN)cc1 [erastin B2]
VDAC isoforms identified on the immobilized analog resin (VDAC1, VDAC2 and VDAC3): only VDAC1 | selective lethality / activity in cells (BJ-TERT/LT/ST/RASV12): lacks activity | lethality (no lethality up to) (BJ-TERT/LT/ST/RASV12; BJELR cells): > 50 µM

COc1cc([C@@H]2c3cc4c(cc3[C@H](O)[C@H]3COC(=O)[C@H]23)OCO4)cc(OC)c1OC [podophyllotoxin]
change in sensitivity/potency after upregulation of VDAC proteins by nucleofection (BJELR cells): did not change the potency

antimycin
Cell death (%) [1]: 51%
